# Molecular target: Recombinant human ATX (Homo sapiens (Human), UniProt Q13822)
# Assay: ATX inhibition assay (choline release, Amplex Red fluorescence)
# Format: biochemical
# Details: ATX 10 nM, LPC 18:1 10 μM, 37° C., 20 min pre-incubation; mean of n≧2
# Procedure, shortened: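 Activity was taken from the slope of resorufin fluorescence (530/590 nm, read every 2 min for 40 min at 37 °C) produced by choline liberated from 10 μM oleoyl LPC.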
row,IC50,SMILES
1,5.2 nM,"Cc1nnn(Cc2cc(Cl)ccc2/C=C/C(=O)N2CCC(c3nnc(CC4CCOCC4)o3)CC2)n1 [Example 110, (E)-3-(4-Chloro-2-((5-methyl-2H-tetrazol-2-yl)methyl)phenyl)-1-(4-(5-((tetrahydro-2H-pyran-4-yl)methyl)-1,3,4-oxadiazol-2-yl)piperidin-1-yl)prop-2-en-1-one]"
2,263 nM,"Cc1nnn(Cc2cc(C(F)(F)F)ccc2/C=C/C(=O)N2CCC[C@H]2C)n1 [Example 117, (R,E)-3-(2-((5-Methyl-2H-tetrazol-2-yl)methyl)-4-(trifluoromethyl)phenyl)-1-(2-methylpyrrolidin-1-yl)prop-2-en-1-one]"
3,24 nM,"Cc1nnn(Cc2cc(C(F)(F)F)ccc2/C=C/C(=O)N2CCC(N(C)S(=O)(=O)c3ccc(F)cc3)CC2)n1 [Example 118, (E)-4-Fluoro-N-methyl-N-(1-(3-(2-((5-methyl-2H-tetrazol-2-yl)methyl)-4-(trifluoromethyl)phenyl)acryloyl)piperidin-4-yl)benzenesulfonamide]"
4,47 nM,"COc1ccc(CN(C)C2CCN(C(=O)/C=C/c3ccc(C(F)(F)F)cc3Cn3nnc(C)n3)CC2)cc1 [Example 119, (E)-1-(4-((4-Methoxybenzyl)(methyl)amino)piperidin-1-yl)-3-(2-((5-methyl-2H-tetrazol-2-yl)methyl)-4-(trifluoromethyl)phenyl)prop-2-en-1-one]"

# The next lines start with the molecule.
row,SMILES,IC50
1,"Cc1nnn(Cc2cc(Cl)ccc2/C=C/C(=O)N2CCC(Cn3nnc(C)n3)CC2)n1 [Example 109, (E)-3-(4-Chloro-2-((5-methyl-2H-tetrazol-2-yl)methyl)phenyl)-1-(4-((5-methyl-2H-tetrazol-2-yl)methyl)piperidin-1-yl)prop-2-en-1-one]",16 nM
2,"COC[C@@H]1CCCN1C(=O)/C=C/c1ccc(C(F)(F)F)cc1Cn1nnc(C)n1 [Example 111, (S,E)-1-(2-(Methoxymethyl)pyrrolidin-1-yl)-3-(2-((5-methyl-2H-tetrazol-2-yl)methyl)-4-(trifluoromethyl)phenyl)prop-2-en-1-one]",47 nM
3,"Cc1nnn(Cc2cc(C(F)(F)F)ccc2/C=C/C(=O)N2CCC(N(C)S(=O)(=O)C3CC3)CC2)n1 [Example 112, (E)-N-Methyl-N-(1-(3-(2-((5-methyl-2H-tetrazol-2-yl)methyl)-4-(trifluoromethyl)phenyl)acryloyl)piperidin-4-yl)cyclopropanesulfonamide]",14 nM
4,"Cc1noc(CN2CCN(C(=O)/C=C/c3ccc(Cl)cc3Cn3nnc(C)n3)[C@H](C)C2)n1 [Example 114, (R,E)-3-(4-Chloro-2-((5-methyl-2H-tetrazol-2-yl)methyl)phenyl)-1-(2-methyl-4-((3-methyl-1,2,4-oxadiazol-5-yl)methyl)piperazin-1-yl)prop-2-en-1-one]",3.9 nM
5,"Cc1nnn(Cc2cc(C(F)(F)F)ccc2/C=C/C(=O)N2CCN(Cc3nonc3C)CC2)n1 [Example 116, (E)-1-(4-((4-Methyl-1,2,5-oxadiazol-3-yl)methyl)piperazin-1-yl)-3-(2-((5-methyl-2H-tetrazol-2-yl)methyl)-4-(trifluoromethyl)phenyl)prop-2-en-1-one]",33 nM
6,"Cc1cnn(CC2CCN(C(=O)/C=C/c3ccc(Cl)cc3Cn3nnc(C)n3)CC2)n1 [Example 120, (E)-3-(4-Chloro-2-((5-methyl-2H-tetrazol-2-yl)methyl)phenyl)-1-(4-((4-methyl-2H-1,2,3-triazol-2-yl)methyl)piperidin-1-yl)prop-2-en-1-one]",8.1 nM
7,"Cc1nnn(Cc2cc(C(F)(F)F)ccc2/C=C/C(=O)N2CCCC[C@H]2C(F)(F)F)n1 [Example 121, (S,E)-3-(2-((5-Methyl-2H-tetrazol-2-yl)methyl)-4-(trifluoromethyl)phenyl)-1-(2-(trifluoromethyl)piperidin-1-yl)prop-2-en-1-one]",6.9 nM
8,"Cc1nnn(Cc2cc(Cl)ccc2/C=C/C(=O)N2CCC(c3nnc(CN4CCCCC4)o3)CC2)n1 [Example 122, (E)-3-(4-Chloro-2-((5-methyl-2H-tetrazol-2-yl)methyl)phenyl)-1-(4-(5-(piperidin-1-ylmethyl)-1,3,4-oxadiazol-2-yl)piperidin-1-yl)prop-2-en-1-one]",58 nM
